The target in one data set is T1, vATPase (Mus musculus, UniProt P63082).
T1 construct: from tissue; host or cells: kidney of male Balb/c mice (crude homogenate, 700 x g supernatant)
Nature of the data set: V-ATPase activity assay on kidney homogenates of bafilomycin A1 treated mice. It counts as in vivo. The conditions noted are these: for Bafilomycin A1 sensitive ATPase activity ± SD / total ATPase activity ± SD: kidney homogenate; for reduction of bafilomycin A1 sensitive ATPase activity: vs control. As to the method: (§1) Male Balb/c mice were provided by the Monash University Central Animal House and Breeding Facility. The Monash University Department of Biochemistry Animal Ethics Committee approved all animal experimentation. Bafilomycin A1 (Sigma) was dissolved in 70% ethanol then diluted 1 in 10 with sterile phosphate buffered saline (PBS) to give a working stock of 4.8 μg/ml. Groups of between 3 and 9 mice as indicated were administered 12 μg per kilogram (body weight) bafilomycin A1 by intraperitoneal injection, which should achieve a final concentration in the blood of 275 nM bafilomycin A1 assuming a blood volume of 70 ml per kg for mice. […] Control mice received the ethanol/PBS carrier solution that lacked the inhibitor.
Seven control mice, 4 mice treated 1 day previously and 4 mice treated 7 days previously with bafilomycin A1 were anaesthetised with 35 mg per kg body weight pentobarbitone (Nembutal) and the kidneys removed and immediately frozen on dry ice and stored at −80° C. until processed. The kidneys were weighed then homogenised in liquid nitrogen using a mortar and pestle. 1 ml of 10 mM Tris-Cl pH 8.0 and 2 mM Mg2Cl containing protease inhibitors was then added and the tissue was further homogenised with 5 strokes of a dounce homogeniser. One ml of 0.5 M sucrose, 40 mM Tris-Cl pH 8, 2 mM Mg2Cl was then added to the homogenate and the suspension was clarified by centrifugation at 700×g for 10 minutes at 4° C. Supernatents containing soluble and membrane bound components were then assayed in duplicate for ATPase activity by incubating 100 μl of a 1:100 dilution of the tissue extract with 1 mM ATP in Tris buffered saline (TBS) for 30 minutes in the well of a microtitre plate in the presence or absence of 15 μl of a 1 μM solution of bafilomycin A1 in a final reaction volume of 200 μl. The inorganic phosphate released was measured using the one-step method of Chan et al., (1986), and absorbances were read in a microtitre plate reader at a wavelength of 660 nm. Results were corrected for background phosphate concentration and ATP autohydrolysis. The protein content of each kidney extract was determined using the Bradford reagent (Biorad).

Data set [1] deals with Balb/c mice. The experiment in a line: Oral glucose tolerance test (OGTT). It counts as in vivo. Here is the method:
as §1
Groups of 6 control and 6 treated mice were fasted for 6-7 hours then anaesthetised by intraperitoneal injection of 35 mg/kg body weight of pentobarbitone (Nembutal) in order to minimise stress-induced variations in blood glucose. D-glucose (2 mg/g body weight) was delivered into the stomach by gavage as a 200 mg/ml solution. Blood glucose concentrations were determined for the fasted mice and at 15, 30, 60 and 120 minutes after glucose challenge as follows. Whole blood (approximately 60 μl) was collected from the tail vein and glucose concentrations were immediately determined by the glucose oxidase method using a YSI glucose analyser.

Data set [2] has as its system Balb/c mice. The experiment in a line: Pancreatic immunoreactive insulin content by RIA on pancreas homogenates. It counts as in vivo. The conditions noted are these: treated 14 days previously, 15 minutes after glucose challenge. As to the method:
Groups of 9 mice were treated with bafilomycin A1 or carrier solution then fasted, anaesthetised with penotobarbitone and challenged with glucose as described for the OGTT. Blood samples for insulin assay were collected from the orbital plexus from fasted mice or from mice 15 minutes after glucose challenge using 4×75 μl haematocrit tubes for each bleed. Serum samples were diluted 1 in 5 or 1 in 20 then assayed in duplicate for insulin content using a Linco sensitive rat insulin radioimmunoassay kit. Pancreata from the mice that were bled 15 minutes after glucose challenge were dissected and frozen on dry ice. The frozen pancreata were homogenised in 2 ml of PBS containing 1 mg/ml BSA per gram of pancreas by 10 strokes in a dounce homogeniser. The slurry was sonicated using 3×10 second bursts and then centrifuged at 12,000×g for 60 minutes. The supernatants were stored at −20° C. Insulin content was determined by sensitive rat insulin RIA using a 1 in 1,000 dilution of the homogenates.
Pancreatic immunoreactive insulin content was determined directly by RIA on homogenates of pancreas. Mice treated 14 days previously were fasted and then challenged with glucose 15 minutes prior to removal of the pancreas. […]

Another data set has as its system C57B1/6J mice. The experiment in a line: Size and number of pancreatic islets after vATPase inhibitors. It counts as in vivo. Here is the method: The effect of vATPase inhibitors on the size and number of pancreatic islets was analysed in C57B1/6J using either bafilomycin A1 (BA1) or concanamycin A (CMA). The effect of Streptozotocin, an islet beta-cell specific toxin produced by Streptomyces achromogenes was also examined, to enable comparison with the effect of vATPase inhibitors.
Groups of 4 female C57B1/6J mice were injected with 5 doses on 5 consecutive days of 12 ng/g body weight BA1, CMA or the well characterised islet β-cell toxin streptozotocin. Pancreases were removed on day 84 and 3 formalin-fixed sections per mouse were immunostained for insulin. The area of insulin-positive islets was measured on digital images using MCID software.

In the next data set the test system is P-ATPase. The conditions noted are these: 275 nM; cited from earlier work.

T1 sequence (Q91V37 whole entry): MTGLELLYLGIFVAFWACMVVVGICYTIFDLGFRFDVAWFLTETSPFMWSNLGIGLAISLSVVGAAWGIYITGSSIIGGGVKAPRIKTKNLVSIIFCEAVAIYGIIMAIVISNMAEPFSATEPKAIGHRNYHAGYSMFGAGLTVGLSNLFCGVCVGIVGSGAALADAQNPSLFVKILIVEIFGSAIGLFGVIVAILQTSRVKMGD
T1 sequence (P63082 whole entry): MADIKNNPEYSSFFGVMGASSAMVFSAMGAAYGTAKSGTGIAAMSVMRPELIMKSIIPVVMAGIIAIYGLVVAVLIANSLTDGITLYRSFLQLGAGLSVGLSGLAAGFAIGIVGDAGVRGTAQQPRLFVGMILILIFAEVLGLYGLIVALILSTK

For the compound `CO/C1=C\C(C)=C\[C@@H](C)[C@@H](O)[C@@H](C)C/C(C)=C/C=C/[C@H](OC)[C@@H]([C@@H](C)[C@@H](O)[C@H](C)[C@@]2(O)C[C@@H](O)[C@H](C)[C@@H](C(C)C)O2)OC1=O` [bafilomycin A1], the “kidney % of animal weight ± SD” value on vATPase (1 day after treatment) was determined as 0.90 ± 0.11%; at vATPase (7 day after treatment), 0.90 ± 0.15%. For the same compound, the “weight or protein contents of the kidneys, treated vs control” value on vATPase (1 day and 7 days after treatment) is “no significant differences”. For the same compound, the “Bafilomycin A1 sensitive ATPase activity ± SD” value on vATPase (1 day after 12 μg/kg i.p.) and at vATPase (7 day after 12 μg/kg i.p.) was 0.80 ± 0.30 Nmol/min/mg protein each time. The “total ATPase activity ± SD” value was determined as 4.4 ± 0.5 Nmol/min/mg protein on vATPase (1 day after 12 μg/kg i.p.) and 4.8 ± 0.8 Nmol/min/mg protein on vATPase (7 day after 12 μg/kg i.p.). Besides, the “reduction of bafilomycin A1 sensitive ATPase activity” value on vATPase (kidney, 1 day after treatment) was found to be 50%; on vATPase (kidney, 7 days after treatment) it was 50%. Further, the “reduction of bafilomycin A1 insensitive ATPase activity” value at vATPase (kidney, 1 day and 7 days after treatment) is recorded as “not in bafilomycin A1 insensitive ATPase activity”. Besides, the “blood glucose after 2 hours (OGTT)” value in the data set on Balb/c mice [1] (21 days after treatment) came to 4.2 ± 0.2 mM; in the data set with Balb/c mice [1] (seven days after administration), 4.1 ± 0.4 mM. Moreover, the fasting glucose levels entry in the data set with Balb/c mice [1] (treated mice) is recorded as “no change”. Moreover, the “peak glucose level, 15 minutes after glucose challenge” value with Balb/c mice [1] (twenty one days after administration) came to 12.5 ± 2.4 mM. Further, the “more pancreatic immunoreactive insulin than controls” value in the data set on Balb/c mice [2] was 70%. In addition, the “pancreatic immunoreactive insulin content (median)” value with Balb/c mice [2] was 565 μg IRI per gram of pancreas. Also, in the data set with C57B1/6J mice (day 84, 5 daily doses of 12 ng/g body weight), the “No. islets per mm^2 pancreas section” value is 0.85 per mm^2 pancreas section. In addition, the “effect on islet number and size” value with C57B1/6J mice (i.p. 12 ng/gram body weight) is listed as “increased the number of small islets”. The compound further had a Median size in the data set on C57B1/6J mice (insulin-positive islets, day 84, 5 daily doses of 12 ng/g body weight) of 3830 μm^2. Moreover, the “inhibition of P-ATPase activity” value in the data set on P-ATPase is listed as “no detectable inhibition”.

Source of the values: patent US20050132448A1, “Assay for beta cell toxic macrolides” (priority 2001, published 2005).
